Measured values reported in ChEMBL document CHEMBL3098110, “Modulating the interaction between CDK2 and cyclin A with a quinoline-based inhibitor” (Bioorg Med Chem Lett, 2014).

How the values were obtained:
[1] = target: T1, Cyclin-dependent kinase 2 (Homo sapiens, UniProt P24941)
Description: Inhibition of CDK2 (unknown origin)-cyclin A interaction preincubated for 30 mins at room temperature followed by incubation at 40 degC for 30 mins by SDS-PAGE analysis

[2] = target: T1, Cyclin-dependent kinase 2; remark: listed apart in the source
Description: Binding affinity to human CDK2 by isothermal titration calorimetric analysis

[3] = target: T1, Cyclin-dependent kinase 2; remark: listed apart in the source
[4] = target: T1, Cyclin-dependent kinase 2; remark: listed apart in the source
Description: Displacement of B-Alexa-Fluor647 from CDK2 (unknown origin) by fluorescence polarization assay

With COC(=O)[C@H](Cc1ccc(O)cc1)NC(=O)c1cc(C(=O)O)c2cc(-c3cccs3)ccc2n1 as the molecule, how does the IC50 [1] read?
The IC50 was over 10 µM.

What about the Kd [2] of the same molecule?
Its Kd is 1 µM.

What about the Kd [3] of the same molecule?
Its Kd is 1.1 µM.

What about the Ki [4] of the same molecule?
The Ki was 0.9 µM.

For COC(=O)[C@H](Cc1ccc(O)cc1)NC(=O)c1cc(C(N)=O)c2cc(-c3cccs3)ccc2n1, which IC50 [1] is on record?
Its IC50 is over 10 µM.

And the Kd [3]?
Its Kd is over 40 µM.

And the Ki [4]?
Its Ki is over 40 µM.

For COC(=O)[C@H](Cc1ccc(O)cc1)NC(=O)c1cc(C(=O)O)c2cc(-c3ccccc3)ccc2n1, which IC50 [1] is on record?
The IC50 was over 10 µM.

What about the Kd [3] of the same molecule?
The Kd was 12 µM.

And the Ki [4]?
Its Ki is 10 µM.

How did the IC50 [1] turn out when COC(=O)[C@H](Cc1ccc(O)cc1)NC(=O)c1cc(C(=O)O)c2cc(N3CCOCC3)ccc2n1 was run?
Its IC50 is over 10 µM.

What about the Kd [3] of the same molecule?
Its Kd is 2.4 µM.

And the Ki [4]?
The Ki was 2.8 µM.

Which IC50 [1] does the source give for COC(=O)[C@H](Cc1ccc(O)cc1)NC(=O)c1cc(C(=O)NS(C)(=O)=O)c2cc(-c3cccs3)ccc2n1 here?
Its IC50 is over 10 µM.

What about the Kd [3] of the same molecule?
The Kd was over 40 µM.

What about the Ki [4] of the same molecule?
The Ki was over 40 µM.

Which IC50 [1] does the source give for COC[C@H](Cc1ccc(O)cc1)NC(=O)c1cc(C(=O)O)c2cc(-c3cccc(C(F)(F)F)c3)ccc2n1 here?
Its IC50 is over 10 µM.

And the Kd [3]?
Its Kd is 0.24 µM.

And the Ki [4]?
Its Ki is 0.1 µM.

O=C(N[C@@H](Cc1ccc(O)cc1)C(=O)O)c1cc(C(=O)O)c2cc(-c3cccc(C(F)(F)F)c3)ccc2n1 was tested. Which IC50 [1] did it give?
Its IC50 is over 10 µM.

What about the Kd [3] of the same molecule?
Its Kd is over 10 µM.

And the Ki [4]?
The Ki was 12 µM.

Which results are given for COC(=O)[C@H](Cc1ccc(O)cc1)NC(=O)c1cc(C(=O)O)c2cc(-c3ccc(Cl)cc3)ccc2n1?
IC50 [1]: > 10 µM; Kd [3]: 0.9 µM; Ki [4]: 0.9 µM

Which results are given for CCC[C@H](Cc1ccc(O)cc1)NC(=O)c1cc(C(=O)O)c2cc(-c3cccc(C(F)(F)F)c3)ccc2n1?
IC50 [1]: > 10 µM; Kd [3]: 0.4 µM; Ki [4]: 0.3 µM

Which IC50 [1] does the source give for C[C@H](Cc1ccc(O)cc1)NC(=O)c1cc(C(=O)O)c2cc(-c3cccc(C(F)(F)F)c3)ccc2n1 here?
Its IC50 is over 10 µM.

What about the Kd [3] of the same molecule?
Its Kd is 4 µM.

And the Ki [4]?
Its Ki is 2.5 µM.

With COC(=O)[C@H](Cc1ccc(O)cc1)NC(=O)c1cc(C(=O)O)c2cc(CCc3ccc(Cl)cc3)ccc2n1 as the molecule, how does the IC50 [1] read?
The IC50 was over 10 µM.

And the Kd [2]?
Its Kd is 0.055 µM.

What about the Kd [3] of the same molecule?
The Kd was 0.048 µM.

And the Ki [4]?
The Ki was under 0.1 µM.

Which IC50 [1] does the source give for O=C(NCCc1ccc(O)cc1)c1cc(C(=O)O)c2cc(-c3cccs3)ccc2n1 here?
The IC50 was over 10 µM.

What about the Kd [3] of the same molecule?
The Kd was over 40 µM.

And the Ki [4]?
The Ki was over 40 µM.

With COC(=O)[C@H](Cc1ccc(O)cc1)NC(=O)c1cc(CO)c2cc(-c3cccc(C(F)(F)F)c3)ccc2n1 as the molecule, how does the IC50 [1] read?
The IC50 was over 10 µM.

And the Kd [3]?
Its Kd is over 40 µM.

What about the Ki [4] of the same molecule?
The Ki was over 40 µM.

What does the source list for COC(=O)[C@H](Cc1ccc(OC)cc1)NC(=O)c1cc(C(=O)O)c2cc(-c3cccc(C(F)(F)F)c3)ccc2n1?
IC50 [1]: > 10 µM; Kd [3]: > 40 µM; Ki [4]: > 40 µM

Which results are given for COC(=O)[C@H](Cc1ccc(F)cc1)NC(=O)c1cc(C(=O)O)c2cc(-c3cccc(C(F)(F)F)c3)ccc2n1?
IC50 [1]: > 10 µM; Kd [3]: 4 µM; Ki [4]: 2.5 µM

With COC[C@H](Cc1ccc(O)cc1)NC(=O)c1cc(C(=O)O)c2cc(/C=C/c3ccc(Cl)cc3)ccc2n1 as the molecule, how does the IC50 [1] read?
The IC50 was over 10 µM.

And the Kd [3]?
Its Kd is 0.025 µM.

What about the Ki [4] of the same molecule?
Its Ki is under 0.1 µM.

What does the source list for CNC(=O)[C@H](Cc1ccc(O)cc1)NC(=O)c1cc(C(=O)O)c2cc(/C=C/c3ccc(Cl)cc3)ccc2n1?
IC50 [1]: > 10 µM; Kd [3]: 0.3 µM; Ki [4]: 0.1 µM

What does the source list for COC(=O)[C@H](Cc1cccc(O)c1)NC(=O)c1cc(C(=O)O)c2cc(-c3cccc(C(F)(F)F)c3)ccc2n1?
IC50 [1]: > 10 µM; Kd [3]: > 40 µM; Ki [4]: > 40 µM

For COC(=O)[C@H](Cc1ccc(O)cc1)NC(=O)c1cc(C(=O)O)c2cc(-c3cc(Cl)cc(Cl)c3)ccc2n1, which IC50 [1] is on record?
Its IC50 is over 10 µM.

And the Kd [3]?
Its Kd is 0.32 µM.

And the Ki [4]?
Its Ki is 0.2 µM.

How did the IC50 [1] turn out when COC(=O)[C@H](Cc1ccc(O)cc1)NC(=O)c1cc(C(=O)O)c2cc(/C=C/c3ccc(Cl)cc3)ccc2n1 was run?
The IC50 was over 10 µM.

And the Kd [3]?
The Kd was 0.005 µM.

What about the Ki [4] of the same molecule?
Its Ki is under 0.1 µM.

Which IC50 [1] does the source give for CCCCCCc1ccc2nc(C(=O)N[C@@H](Cc3ccc(O)cc3)C(=O)OC)cc(C(=O)O)c2c1 here?
Its IC50 is over 10 µM.

What about the Kd [3] of the same molecule?
Its Kd is 0.076 µM.

And the Ki [4]?
The Ki was under 0.1 µM.

How did the IC50 [1] turn out when COC(=O)[C@H](Cc1ccc(O)cc1)NC(=O)c1cc(C(=O)O)c2cc(-c3cccc(C(F)(F)F)c3)ccc2n1 was run?
The IC50 was over 10 µM.

And the Kd [2]?
Its Kd is 0.05 µM.

And the Kd [3]?
Its Kd is 0.04 µM.

What about the Ki [4] of the same molecule?
The Ki was under 0.1 µM.

CN(C)C(=O)[C@H](Cc1ccc(O)cc1)NC(=O)c1cc(C(=O)O)c2cc(/C=C/c3ccc(Cl)cc3)ccc2n1 was tested. Which IC50 [1] did it give?
The IC50 was over 10 µM.

What about the Kd [3] of the same molecule?
The Kd was 0.35 µM.

What about the Ki [4] of the same molecule?
Its Ki is 0.16 µM.
